Results as given in the NIST ThermoML archive (doi:10.1016/j.tca.2014.05.033).
Numbers after ± are expanded uncertainties.

Key:
[1] = Transpiration method
[2] = molar enthalpy of vaporization or sublimation; conditions: 298.15 K, DSC

c1ccc(-c2ccccc2-c2ccccc2)cc1 [o-terphenyl]
vapor or sublimation pressure ([1]; 343.5 K, Liquid): 0.00166 ± 9e-05 kPa
vapor or sublimation pressure ([1]; 345.5 K, Liquid): 0.00195 ± 0.0001 kPa
vapor or sublimation pressure ([1]; 346.4 K, Liquid): 0.0021 ± 0.00011 kPa
vapor or sublimation pressure ([1]; 348.4 K, Liquid): 0.0025 ± 0.00013 kPa
vapor or sublimation pressure ([1]; 349.5 K, Liquid): 0.0027 ± 0.00014 kPa
vapor or sublimation pressure ([1]; 351.5 K, Liquid): 0.00315 ± 0.00016 kPa
vapor or sublimation pressure ([1]; 352.5 K, Liquid): 0.00339 ± 0.00018 kPa
vapor or sublimation pressure ([1]; 355.4 K, Liquid): 0.00427 ± 0.00022 kPa
vapor or sublimation pressure ([1]; 358.4 K, Liquid): 0.00528 ± 0.00028 kPa
vapor or sublimation pressure ([1]; 360.4 K, Liquid): 0.0062 ± 0.00032 kPa
vapor or sublimation pressure ([1]; 361.4 K, Liquid): 0.00658 ± 0.00034 kPa
vapor or sublimation pressure ([1]; 361.5 K, Liquid): 0.00664 ± 0.00035 kPa
vapor or sublimation pressure ([1]; 363.2 K, Liquid): 0.00752 ± 0.00039 kPa
vapor or sublimation pressure ([1]; 365.4 K, Liquid): 0.00888 ± 0.00046 kPa
vapor or sublimation pressure ([1]; 366.4 K, Liquid): 0.00943 ± 0.00049 kPa
vapor or sublimation pressure ([1]; 368.4 K, Liquid): 0.01095 ± 0.00057 kPa
vapor or sublimation pressure ([1]; 369.4 K, Liquid): 0.01187 ± 0.00062 kPa
vapor or sublimation pressure ([1]; 371.4 K, Liquid): 0.01363 ± 0.0007 kPa
vapor or sublimation pressure ([1]; 373.3 K, Liquid): 0.01527 ± 0.00079 kPa
vapor or sublimation pressure ([1]; 374.4 K, Liquid): 0.01677 ± 0.00087 kPa
vapor or sublimation pressure ([1]; 376.3 K, Liquid): 0.01869 ± 0.00097 kPa
vapor or sublimation pressure ([1]; 377.4 K, Liquid): 0.02037 ± 0.0011 kPa
molar enthalpy ([2]; Crystal): 25.3 ± 0.741 kcal/mol

c1ccc2c(c1)ccc1ccccc12 [phenanthrene]
vapor or sublimation pressure ([1]; 306.2 K, Crystal 2): 5e-05 ± 1e-05 kPa
vapor or sublimation pressure ([1]; 309.4 K, Crystal 2): 7e-05 ± 1e-05 kPa
vapor or sublimation pressure ([1]; 313.2 K, Crystal 2): 0.00012 ± 1e-05 kPa
vapor or sublimation pressure ([1]; 316.3 K, Crystal 2): 0.00016 ± 1e-05 kPa
vapor or sublimation pressure ([1]; 319.3 K, Crystal 2): 0.00021 ± 1e-05 kPa
vapor or sublimation pressure ([1]; 322.3 K, Crystal 2): 0.00031 ± 2e-05 kPa
vapor or sublimation pressure ([1]; 325.2 K, Crystal 2): 0.00043 ± 2e-05 kPa
vapor or sublimation pressure ([1]; 328.4 K, Crystal 2): 0.00055 ± 3e-05 kPa
vapor or sublimation pressure ([1]; 329.2 K, Crystal 2): 0.00063 ± 4e-05 kPa
vapor or sublimation pressure ([1]; 330.7 K, Crystal 2): 0.00073 ± 4e-05 kPa
vapor or sublimation pressure ([1]; 334.2 K, Crystal 2): 0.00101 ± 5e-05 kPa
vapor or sublimation pressure ([1]; 337.2 K, Crystal 2): 0.00135 ± 7e-05 kPa
vapor or sublimation pressure ([1]; 340.3 K, Crystal 2): 0.00178 ± 9e-05 kPa
vapor or sublimation pressure ([1]; 343.4 K, Crystal 2): 0.00229 ± 0.00012 kPa
vapor or sublimation pressure ([1]; 346.3 K, Crystal 2): 0.00306 ± 0.00016 kPa
vapor or sublimation pressure ([1]; 349.4 K, Crystal 1): 0.00403 ± 0.00022 kPa
vapor or sublimation pressure ([1]; 352.4 K, Crystal 1): 0.00545 ± 0.00029 kPa
vapor or sublimation pressure ([1]; 355.5 K, Crystal 1): 0.00705 ± 0.00037 kPa
vapor or sublimation pressure ([1]; 356.8 K, Crystal 1): 0.0076 ± 0.0004 kPa
vapor or sublimation pressure ([1]; 358.6 K, Crystal 1): 0.00914 ± 0.00048 kPa
vapor or sublimation pressure ([1]; 359.2 K, Crystal 1): 0.00907 ± 0.00046 kPa
vapor or sublimation pressure ([1]; 362.3 K, Crystal 1): 0.01171 ± 0.00062 kPa
vapor or sublimation pressure ([1]; 365.3 K, Crystal 1): 0.01534 ± 0.00082 kPa
vapor or sublimation pressure ([1]; 368.3 K, Crystal 1): 0.01988 ± 0.001 kPa
vapor or sublimation pressure ([1]; 370.4 K, Crystal 1): 0.02298 ± 0.0012 kPa
molar enthalpy ([2]; Crystal 2): 22.1 ± 0.717 kcal/mol
